Test system: A/Paris/1170/2007 (H1N1, Y274)
Experiment: microbe, parasite or virus in culture
Assay type: cell-based
Settings: Influenza A virus, H1N1, 72 h, read-out: EC50, 50% reduction of the average plaque diameter

**Q.** How did the EC50 turn out when `CC(=O)N[C@H]1[C@H]([C@H](O)[C@H](O)CO)OC(C(=O)O)=C[C@@H]1O` [Neu5Ac2en, reference compound] was run?
**A.** 8 µM

**Q.** `C=CCC1=C(C(=O)O)O[C@@H]([C@H](O)[C@H](O)CO)[C@H](NC(C)=O)[C@H]1O` [Compound 7, 5-Acetamido-2,6-anhydro-3,5-dideoxy-3-C-(prop-2′-enyl)-D-glycero-D-galacto-non-2-en-onic acid] was tested. Which EC50 did it give?
**A.** 2200 µM

**Q.** For `CC(=O)NC1C(O)C(CC=Cc2ccc(C)cc2)=C(C(=O)O)OC1C(O)C(O)CO` (stereo not drawn) [Compound 9d], which EC50 is on record?
**A.** 40 µM

From patent US20120202877A1 (priority 2009, published 2012)
